Nine compounds from patent US6686343B1, “Triazolopurine derivatives, pharmaceutical compositions containing the derivatives, and adenosine A3 receptor affinitive agents” (Otsuka Pharmaceutical Factory, Inc., priority 1999, dated 2004) can be followed below.

`CSCc1nc2nc[nH]c2c2nc(-c3ccc(-c4ccccc4)cc3)nn12` [Example 48, 8-(4-biphenylyl)-5-methylthiomethyl-1H-1,2,4-triazolo[5,1-i]purine]: the melting point lay in the range of 284 to 286 °C. For the compound `CCSCc1nc2nc[nH]c2c2nc(-c3ccc(-c4ccccc4)cc3)nn12` [Example 49, 8-(4-biphenylyl)-5-ethylthiomethyl-1H-1,2,4-triazolo[5,1-i]purine], the melting point was 264 to 266 °C. `CC(=O)OCc1nc2nc[nH]c2c2nc(-c3ccc(-c4ccccc4)cc3)nn12` [Example 52, 8-(4-biphenylyl)-5-acetoxymethyl-1H-1,2,4-triazolo[5,1-i]purine] displayed a melting point of 233 to 235 °C. With `CN(C)Cc1nc2nc[nH]c2c2nc(-c3ccc(-c4ccccc4)cc3)nn12` [Example 54, 8-(4-biphenylyl)-5-dimethylaminomethyl-1H-1,2,4-triazolo[5,1-i]purine], the melting point is 284 to 286 °C (dec.). Turning to `CN(C)CCCc1nc2nc[nH]c2c2nc(-c3ccc(-c4ccccc4)cc3)nn12` [Example 55, 8-(4-biphenylyl)-5-(3-dimethylaminopropyl)-1H-1,2,4-triazolo[5,1-i]purine], the melting point was 227 to 230 °C (dec.). The same measure for `c1ccc(COCCCc2nc3nc[nH]c3c3nc(-c4ccc(-c5ccccc5)cc4)nn23)cc1` [Example 56, 5-(3-benzyloxypropyl)-8-(4-biphenylyl)-1H-1,2,4-triazolo[5,1-i]purine]: 237 to 238 °C; for `c1ccc(COCCCCc2nc3nc[nH]c3c3nc(-c4ccc(-c5ccccc5)cc4)nn23)cc1` [Example 57, 5-(4-benzyloxybutyl)-8-(4-biphenylyl)-1H-1,2,4-triazolo[5,1-i]purine]: 205 to 207 °C; for `C[S+]([O-])Cc1nc2nc[nH]c2c2nc(-c3ccc(-c4ccccc4)cc3)nn12` (stereo not drawn) [Example 60, 8-(4-biphenylyl)-5-methylsulfinylmethyl-1H-1,2,4-triazolo[5,1-i]purine]: ≥ 246 °C (dec.). In the case of `C[S+]([O-])CCc1nc2nc[nH]c2c2nc(-c3ccc(-c4ccccc4)cc3)nn12` (stereo not drawn) [Example 61, 8-(4-biphenylyl)-5-(2-methylsulfinylethyl)-1H-1,2,4-triazolo[5,1-i]purine], the melting point is ≥ 234 °C (dec.).

What is called melting point is the temperature of the solid-liquid transition.
